Measured values published in patent US12729377B2, “RNAi agents and compositions for inhibiting expression of angiopoietin-like 3 (ANGPTL3), and methods of use” (Arrowhead Pharmaceuticals, Inc., priority 2017, dated 2026).
In the oligonucleotide strings, read from the 5' end, every base follows the letter of its sugar. An asterisk marks phosphorothioate; unmarked linkages are phosphodiester. Other units and linkages are bracketed, terminal groups are in braces. A string of capitals states the bases alone. {NAG37} = tridentate N-acetyl-galactosamine targeting ligand, structure (NAG37)s; [invAb] = inverted abasic unit; m = 2'-O-methyl; f = 2'-fluoro

How the values were obtained:
ANGPTL3 gene [1] = experiment: Example 11: dose response, serum total cholesterol in mice; format: in vivo, C57bl/6 mice
Protocol: To assess the dose response of ANGPTL3 RNAi agent AD05488, six- to eight-week-old female C57bl/6 mice were used. Pre-dose serum samples were taken at day −1 after a four hour fast. At day 1, each mouse was given a single subcutaneous administration of 200 μl containing the respective mg/kg dose of an ANGPTL3 RNAi agent in D5W (dextrose in 5% water), or control (D5W) with no RNAi agent, according to the dosing groups recited in Table 53:
The RNAi agent tested (AD05488) included a modified sequence and an N-acetyl-galactosamine-containing targeting ligand conjugated to the 5′ terminal end of the sense strand. (See Tables 3, 4, and 5 for modified sequences and targeting ligand structures). The injections were performed between the skin and muscle (i.e. subcutaneous injections) into the loose skin over the neck and shoulder area. Four (4) mice in each group were tested (n=4). Serum was collected on days 8, 15, 22, and 29. Mice were fasted for four hours prior to each collection. ANGPTL3 protein levels in serum were measured by ELISA assay (R&D Systems), according to the manufacturer's recommendations. Triglycerides, total cholesterol, high-density lipoprotein (HDL), and low-density lipoprotein (LDL) in serum were measured on a Cobas® Integra 400 (Roche Diagnostics), according to the manufacturer's recommendations.
The ANGPTL3 protein levels, triglyceride levels, total cholesterol levels, HDL levels, and LDL levels for each animal were normalized. For normalization, the level of ANGPTL3 protein, triglyceride, HDL, and total cholesterol, respectively, for each animal at a time point, was divided by the pre-treatment level of expression in that animal (in this case at day −1) to determine the ratio of expression “normalized to pre-treatment.” Expression at a specific time point was then normalized to the D5W control group by dividing the “normalized to pre-treatment” ratio for an individual animal by the mean “normalized to pretreatment” ratio of all mice in the D5W control group.

ANGPTL3 gene [2] = experiment: Example 12: serum triglycerides in LDLR knockout mice; format: in vivo, LDLR KO mice
From the text: To evaluate the effect of RNAi agent administration in a disease model, mice having a genetic mutation for the LDL receptor (referred to herein as LDLR KO mice) were commercially obtained (The Jackson Laboratory). The LDLR KO mice are homozygous for the Ldlr^tm1Her mutation, and have elevated serum cholesterol levels, particularly when placed on a high fat diet. For three weeks prior to the onset of the study, thirty-nine (39) LDLR KO mice were placed on a high fat diet (Teklad Custom Diets TD.88137). An additional eight (8) LDLR KO mice were placed on a normal chow diet over the same three-week period. Pre-dose serum samples were taken on day −15 and day −1 after a four hour fast. At day 1, each mouse was given a single subcutaneous administration of 200 μl/30 g animal body weight containing the respective mg/kg dose of an ANGPTL3 RNAi agent in D5W (dextrose in 5% water), control (D5W) with no RNAi agent, or a control RNAi agent that included a nucleotide sequence designed to target the Hepatitis B Virus (HBV) genome. A second injection of the same formulation was administered to the animals on day 29. The dosing regimen for the study is recited in the following Table 60:
Each mouse remained on its respective diet through the duration of study. The RNAi agent tested (AD05488) included a modified sequence and an N-acetyl-galactosamine-containing targeting ligand conjugated to the 5′ terminal end of the sense strand. (See Tables 3, […] modified sequences and targeting ligand structures). The injections were performed between the skin and muscle (i.e. subcutaneous injections) into the loose skin over the neck and shoulder area. Serum was collected on days 8, 15, 22, 29 (pre-second dose), 36, 43, 50, and 57. LDLR KO mice were fasted for four hours prior to each collection. On day 15, four (4) LDLR KO mice from Groups 1, 2, and 3 (i.e., the groups being administered the high fat “Western” diet) were sacrificed after serum collection, and on day 29, an additional four (4) LDLR KO mice from Groups 1, 2, and 3 were sacrificed after serum collection, for the purpose of performing mRNA assessments.
ANGPTL3 protein levels in serum were measured by ELISA assay (R&D Systems), according to the manufacturer's recommendations. Triglycerides, total cholesterol, high-density lipoprotein (HDL), and low-density lipoprotein (LDL) in serum were measured on a Cobas® Integra 400 (Roche Diagnostics), according to the manufacturer's recommendations.
The ANGPTL3 protein levels, triglyceride levels, total cholesterol levels, HDL levels, and LDL levels for each animal were normalized. For normalization, respective levels of ANGPTL3 protein, TG, total cholesterol, HDL, or LDL for each animal at a time point was divided by the average pre-treatment level of expression in that animal (in this case the average of day −15 and day −1) to determine the ratio of expression “normalized to pre-treatment.”
Expression at a specific time point was then normalized to the D5W control group that was administered the same diet (i.e., either the high fat “Western” diet or the normal chow-fed diet) by dividing the “normalized to pre-treatment” ratio for an individual animal by the mean “normalized to pretreatment” ratio of all mice in the D5W control group on the respective same diet, resulting in expression for each time point normalized to that in the control group.

AD05488: RNAi agent duplex: antisense AM07235-AS, sense AM07234-SS (antisense mU*fA*mC*fUmGfAmUfCmAfAmAfUmAfUmGfUmUfGmAfG*mC; sense {NAG37}*[invAb]*mGmCmUmCmAmAmCmAfUfAfUmUmUmGmAmUmCmAmGmUmA*[invAb])
Avg Total Chol Normalized to Pre-Treatment and Control (ANGPTL3 gene [1]; 0.05 mg/kg single sc day 1, Day 8): 0.856 | Avg Total Chol Normalized to Pre-Treatment and Control (ANGPTL3 gene [1]; 0.05 mg/kg single sc day 1, Day 15): 1.090 | Avg Total Chol Normalized to Pre-Treatment and Control (ANGPTL3 gene [1]; 0.05 mg/kg single sc day 1, Day 22): 0.946 | Avg Total Chol Normalized to Pre-Treatment and Control (ANGPTL3 gene [1]; 0.05 mg/kg single sc day 1, Day 29): 0.915 | Avg Total Chol Normalized to Pre-Treatment and Control (ANGPTL3 gene [1]; 0.1 mg/kg single sc day 1, Day 8): 0.820 | Avg Total Chol Normalized to Pre-Treatment and Control (ANGPTL3 gene [1]; 0.1 mg/kg single sc day 1, Day 15): 0.974 | Avg Total Chol Normalized to Pre-Treatment and Control (ANGPTL3 gene [1]; 0.1 mg/kg single sc day 1, Day 22): 0.785 | Avg Total Chol Normalized to Pre-Treatment and Control (ANGPTL3 gene [1]; 0.1 mg/kg single sc day 1, Day 29): 0.945 | Avg Total Chol Normalized to Pre-Treatment and Control (ANGPTL3 gene [1]; 0.5 mg/kg single sc day 1, Day 8): 0.740 | Avg Total Chol Normalized to Pre-Treatment and Control (ANGPTL3 gene [1]; 0.5 mg/kg single sc day 1, Day 15): 0.918 | Avg Total Chol Normalized to Pre-Treatment and Control (ANGPTL3 gene [1]; 0.5 mg/kg single sc day 1, Day 22): 0.897 | Avg Total Chol Normalized to Pre-Treatment and Control (ANGPTL3 gene [1]; 0.5 mg/kg single sc day 1, Day 29): 0.883 | Avg Total Chol Normalized to Pre-Treatment and Control (ANGPTL3 gene [1]; 1.0 mg/kg single sc day 1, Day 8): 0.610 | Avg Total Chol Normalized to Pre-Treatment and Control (ANGPTL3 gene [1]; 1.0 mg/kg single sc day 1, Day 15): 0.816 | Avg Total Chol Normalized to Pre-Treatment and Control (ANGPTL3 gene [1]; 1.0 mg/kg single sc day 1, Day 22): 0.857 | Avg Total Chol Normalized to Pre-Treatment and Control (ANGPTL3 gene [1]; 1.0 mg/kg single sc day 1, Day 29): 0.920 | Avg Total Chol Normalized to Pre-Treatment and Control (ANGPTL3 gene [1]; 2.5 mg/kg single sc day 1, Day 8): 0.647 | Avg Total Chol Normalized to Pre-Treatment and Control (ANGPTL3 gene [1]; 2.5 mg/kg single sc day 1, Day 15): 0.832 | Avg Total Chol Normalized to Pre-Treatment and Control (ANGPTL3 gene [1]; 2.5 mg/kg single sc day 1, Day 22): 0.772 | Avg Total Chol Normalized to Pre-Treatment and Control (ANGPTL3 gene [1]; 2.5 mg/kg single sc day 1, Day 29): 0.694 | Avg Total Chol Normalized to Pre-Treatment and Control (ANGPTL3 gene [1]; 5.0 mg/kg single sc day 1, Day 8): 0.583 | Avg Total Chol Normalized to Pre-Treatment and Control (ANGPTL3 gene [1]; 5.0 mg/kg single sc day 1, Day 15): 0.787 | Avg Total Chol Normalized to Pre-Treatment and Control (ANGPTL3 gene [1]; 5.0 mg/kg single sc day 1, Day 22): 0.790 | Avg Total Chol Normalized to Pre-Treatment and Control (ANGPTL3 gene [1]; 5.0 mg/kg single sc day 1, Day 29): 0.783 | reductions in TG levels (ANGPTL3 gene [2]; 3.0 mg/kg on days 1 and 29 (Groups 2 and 5), LDLR KO mice): significant reductions | Avg TG (Triglycerides) Normalized to Pre-Treatment and Control (Diet Matched) (ANGPTL3 gene [2]; 3.0 mg/kg sc day 1, High Fat Diet, Day 8): 0.121 | Avg TG (Triglycerides) Normalized to Pre-Treatment and Control (Diet Matched) (ANGPTL3 gene [2]; 3.0 mg/kg sc day 1, High Fat Diet, Day 15): 0.086 | Avg TG (Triglycerides) Normalized to Pre-Treatment and Control (Diet Matched) (ANGPTL3 gene [2]; 3.0 mg/kg sc day 1, High Fat Diet, Day 22): 0.094 | Avg TG (Triglycerides) Normalized to Pre-Treatment and Control (Diet Matched) (ANGPTL3 gene [2]; 3.0 mg/kg sc day 1, High Fat Diet, Day 29 (pre-second dose)): 0.096 | Avg TG (Triglycerides) Normalized to Pre-Treatment and Control (Diet Matched) (ANGPTL3 gene [2]; 3.0 mg/kg sc day 1, Normal Diet, Day 8): 0.472 | Avg TG (Triglycerides) Normalized to Pre-Treatment and Control (Diet Matched) (ANGPTL3 gene [2]; 3.0 mg/kg sc day 1, Normal Diet, Day 15): 0.503 | Avg TG (Triglycerides) Normalized to Pre-Treatment and Control (Diet Matched) (ANGPTL3 gene [2]; 3.0 mg/kg sc day 1, Normal Diet, Day 22): 0.473 | Avg TG (Triglycerides) Normalized to Pre-Treatment and Control (Diet Matched) (ANGPTL3 gene [2]; 3.0 mg/kg sc day 1, Normal Diet, Day 29 (pre-second dose)): 0.480 | Avg TG (Triglycerides) Normalized to Pre-Treatment and Control (Diet Matched) (ANGPTL3 gene [2]; 3.0 mg/kg sc days 1 and 29, High Fat Diet, Day 36): 0.104 | Avg TG (Triglycerides) Normalized to Pre-Treatment and Control (Diet Matched) (ANGPTL3 gene [2]; 3.0 mg/kg sc days 1 and 29, High Fat Diet, Day 43): 0.084 | Avg TG (Triglycerides) Normalized to Pre-Treatment and Control (Diet Matched) (ANGPTL3 gene [2]; 3.0 mg/kg sc days 1 and 29, High Fat Diet, Day 50): 0.091 | Avg TG (Triglycerides) Normalized to Pre-Treatment and Control (Diet Matched) (ANGPTL3 gene [2]; 3.0 mg/kg sc days 1 and 29, High Fat Diet, Day 57): 0.079 | Avg TG (Triglycerides) Normalized to Pre-Treatment and Control (Diet Matched) (ANGPTL3 gene [2]; 3.0 mg/kg sc days 1 and 29, Normal Diet, Day 36): 0.548 | Avg TG (Triglycerides) Normalized to Pre-Treatment and Control (Diet Matched) (ANGPTL3 gene [2]; 3.0 mg/kg sc days 1 and 29, Normal Diet, Day 43): 0.348 | Avg TG (Triglycerides) Normalized to Pre-Treatment and Control (Diet Matched) (ANGPTL3 gene [2]; 3.0 mg/kg sc days 1 and 29, Normal Diet, Day 50): 0.625 | Avg TG (Triglycerides) Normalized to Pre-Treatment and Control (Diet Matched) (ANGPTL3 gene [2]; 3.0 mg/kg sc days 1 and 29, Normal Diet, Day 57): 0.438
